From US6410575B1, “Viral treatment” (The Procter & Gamble Company, priority 1999, dated 2002)

Columns and labels:
HIV-2 cell line, CEMROD = test: Long term in vitro study, CEMROD; type: cell-based
Method: (§1) Toxicity quantification involves the XTT-based evaluation. Assays were designed to characterize the long term effects of the compounds on virus production and to characterize the longer term effects of the compounds on virus production from chronically HIV infected cells.
(§2) CEM-SS cells chronically infected with HIV isolate, for example SKI (CEM-SKI) are cultured in RPMI1640 tissue culture medium supplemented with 10% fetal bovine serum and antibiotics. […] CEM-SKI or other infected cells with no added drug are used as the control cells.
(§3) Cells are allowed to grow to a density of approximately 1×10^6 cells/ml and are then passaged at a 1:10 dilution. […] The drug concentration in the flask is then increased two-fold and the cells maintained as above.
(§4) The cell populations contain integrated copies of the HIV genome and constitutively produce HIV at relatively high levels or are latently infected and only produce virus after stimulation with phorbol esters, tumor necrosis factor or IL6(U1 and ACH2). Reductions in virus products were observed when quantifying supernatant reverse transcriptase activity.
The results with CEMROD cells was reported at weekly intervals.
The CEMROD cell line is a viral strain of the CEMSS cell line.

HIV-1 integrase = HIV-1 integrase (Human immunodeficiency virus type 1 group M subtype B, UniProt P04585); test: Integrase inhibition assay (autoradiography); type: biochemical
Text: A biochemical integrase assay described by Craigie et at (HIV, vol. 2: A practical Approach) Biochemistry, Molecular Biology and Drug Discovery, Ed. J. Kam 1995) to screen agents for their ability to inhibit HIV-1 integrase can be used. In this system, a kinased oligonucleotide serves as the target of 3′ processing and the subsequent strand transfer reaction. The 3′ processing reaction involves the removal of 2 nucleotides from the 3′ ends of the substrate. This is followed by the strand transfer reaction in which the 3′ ends are joined to the exposed 5′ ends. The 20 μl reaction mixture contains 25 mM MOPS (pH 7.2), […] BSA, 10 mM β-mercaptoethanol, 10% glycerol; 7.5 mM MnCl2, 25 nM (7 ng) substrate (Oligo's Etc., Wilsonville, Oreg.) and 200 nM (128 ng) integrase (NIAID AIDS Research and Reference Reagent Program, Bethesda, Md.). The reaction proceeds at 37° C. for 1-2 hours and is terminated by the addition of 20 μl of sequencing stop solution (USB Amersham, Arlington Heights, Ill.). The reaction products are visualized by autoradiography following electrophoresis in 15% polyacrylamide 6M Urea gel. The substrate migrates as a 30 mer, the product of 3′ processing migrates as an N-2 band and the strand transfer products migrate more slowly at various sizes larger than the substrate.
(§5) The mechanism of action of the (5-aryl-1,2,4-thiadiazol)-3-yl thiourea derivatives or (5-aryl-1,2,4-thiadizol)-3-yl urea derivatives is not known.

HSV-2MS = test: Herpes simplex testing in vero cells; type: cell-based, herpes simplex virus -2; settings: HSV-2MS in vero cells
HIV-1 protease = molecular target: T1, HIV-1 protease (Human immunodeficiency virus type 1 group M subtype B, UniProt P04585); test: Protease inhibition assay (fluorometric); type: biochemical
T1 construct: use of the fluorometric, HIV-1 protease assay; purchased Bachem
Method: Protease inhibition is evaluated using a fluorometric method. Enzyme (Bachem) is diluted to 116 μgm/ml in 50 mM NaOAC, 5 mM DTT, 2 mM EDTA, 10% glycerol (pH 5.0) and stored as 10 μl samples at −20° C. HIV protease substrates 1 (Molecular Probes) are diluted to a working concentration of 0.32 nmoles/μl. Enzyme (20 μl) and drug (20 μl) are added to each well of a microtiter plate as appropriate. Positive and negative controls are evaluated in parallel. Fluorescene is quantitated on Labsystems Fluroskan II using 355 nm/460 nm at 37° C. at time zero and at 30 minute intervals for 2 hours. In instances where auto-fluorescence precludes use of the fluorometric, HIV-1 protease assay or confirmation of a result is required, an HPLC based protease assay can be employed.
as §5

[1] = test system: U937RF, a protease resistant strain; test: Long term in vitro study, U937RF; type: cell-based, HIV
Method: as §1, §2, §3, §4
The results with U937RF cells were reported at weekly intervals.

For `NC(=S)Nc1nsc(-c2ccccc2)n1`, the “virus production (supernatant reverse transcriptase activity)” value (“virus production” for short) (HIV-2 cell line, CEMROD; 7 μg/ml, day 4) was 6593, the “virus production” value (HIV-2 cell line, CEMROD; 7 μg/ml, day 11) was 8676 and the “virus production” value (HIV-2 cell line, CEMROD; 7 μg/ml, day 18) was 10912. The “virus production” value (HIV-2 cell line, CEMROD; 7 μg/ml, day 25) was 9356, the “virus production” value (HIV-2 cell line, CEMROD; 7 μg/ml, day 32) was 8803 and the “virus production” value (HIV-2 cell line, CEMROD; 7 μg/ml, day 39) was 6655. For the same compound, the “virus production” value (HIV-2 cell line, CEMROD; 7 μg/ml, day 46) was 8280, the “virus production” value (HIV-2 cell line, CEMROD; 7 μg/ml, day 53) was 7549 and the “virus production” value (HIV-2 cell line, CEMROD; 15 μg/ml, day 4) was 6815. For the same compound, the “virus production” value (HIV-2 cell line, CEMROD; 15 μg/ml, day 11) was 8202, the “virus production” value (HIV-2 cell line, CEMROD; 15 μg/ml, day 18) was 10389 and the “virus production” value (HIV-2 cell line, CEMROD; 15 μg/ml, day 25) was 7816. The “virus production” value (HIV-2 cell line, CEMROD; 15 μg/ml, day 32) was 6672, the “virus production” value (HIV-2 cell line, CEMROD; 15 μg/ml, day 39) was 7087 and the “virus production” value (HIV-2 cell line, CEMROD; 15 μg/ml, day 46) was 6457. For the same compound, the “virus production” value (HIV-2 cell line, CEMROD; 15 μg/ml, day 53) was 6544, the “virus production” value (HIV-2 cell line, CEMROD; 30 μg/ml, day 4) was 6626 and the “virus production” value (HIV-2 cell line, CEMROD; 30 μg/ml, day 11) was 6582. For the same compound, the “virus production” value (HIV-2 cell line, CEMROD; 30 μg/ml, day 18) was 7494, the “virus production” value (HIV-2 cell line, CEMROD; 30 μg/ml, day 25) was 4421 and the “virus production” value (HIV-2 cell line, CEMROD; 30 μg/ml, day 32) was 4056. For the same compound, the “virus production” value (HIV-2 cell line, CEMROD; 30 μg/ml, day 39) was 2118, the “virus production” value (HIV-2 cell line, CEMROD; 30 μg/ml, day 46) was 4117 and the “virus production” value (HIV-2 cell line, CEMROD; 30 μg/ml, day 53) was 4779. For the same compound, the EC50 (HIV-1 integrase) was greater than 423 µM, the “activity as an integrase inhibitor” value (HIV-1 integrase) was “did not show activity” and the remaining activity at 1 µg/mL (HIV-1 integrase; 1 μg/ml, read-out: HIV-1 integrase inhibition, % no drug control) was 108%. The remaining activity at 10 µg/mL (HIV-1 integrase; 10 μg/ml, read-out: HIV-1 integrase inhibition, % no drug control) was 117%, the remaining activity at 100 µg/mL (HIV-1 integrase; 100 μg/ml, read-out: HIV-1 integrase inhibition, % no drug control) was 106% and the remaining activity at 0.1 µg/mL (HIV-1 integrase; read-out: HIV-1 integrase inhibition, % no drug control) was 98.8%. For the same compound, the “TI or therapeutic index” value (HSV-2MS) was greater than 1.3, the EC50 (HIV-1 protease) was greater than 423 µM and the “activity as a protease inhibitor” value (HIV-1 protease) was “did not show activity”. The remaining activity at 0.001 µM (HIV-1 protease; 1 nM, read-out: Protease inhibition, % no drug control) was 100%, the remaining activity at 0.01 µM (HIV-1 protease; 10 nM, read-out: Protease inhibition, % no drug control) was 103% and the remaining activity at 0.1 µM (HIV-1 protease; 100 nM, read-out: Protease inhibition, % no drug control) was 99.9%. For the same compound, the remaining activity at 1 µM (HIV-1 protease; read-out: Protease inhibition, % no drug control) was 88%, the “virus production” value ([1]; 7 μg/ml, day 4) was 1627 and the “virus production” value ([1]; 7 μg/ml, day 11) was 1526. The “virus production” value ([1]; 7 μg/ml, day 18) was 4086, the “virus production” value ([1]; 7 μg/ml, day 25) was 5303 and the “virus production” value ([1]; 7 μg/ml, day 32) was 4827. The “virus production” value ([1]; 7 μg/ml, day 39) was 6008, the “virus production” value ([1]; 7 μg/ml, day 46) was 3586 and the “virus production” value ([1]; 7 μg/ml, day 53) was 5726. For the same compound, the “virus production” value ([1]; 15 μg/ml, day 4) was 1575, the “virus production” value ([1]; 15 μg/ml, day 11) was 1482 and the “virus production” value ([1]; 15 μg/ml, day 18) was 3772. For the same compound, the “virus production” value ([1]; 15 μg/ml, day 25) was 2654, the “virus production” value ([1]; 15 μg/ml, day 32) was 1594 and the “virus production” value ([1]; 15 μg/ml, day 39) was 3538. For the same compound, the “virus production” value ([1]; 15 μg/ml, day 46) was 2426, the “virus production” value ([1]; 15 μg/ml, day 53) was 3976 and the “virus production” value ([1]; 30 μg/ml, day 4) was 1751. For the same compound, the “virus production” value ([1]; 30 μg/ml, day 11) was 1237, the “virus production” value ([1]; 30 μg/ml, day 18) was 2892 and the “virus production” value ([1]; 30 μg/ml, day 25) was 735. For the same compound, the “virus production” value ([1]; 30 μg/ml, day 32) was 1035, the “virus production” value ([1]; 30 μg/ml, day 39) was 1265 and the “virus production” value ([1]; 30 μg/ml, day 46) was 1358. For the same compound, the “virus production” value ([1]; 30 μg/ml, day 53) was 2333.
